# Results taken from patent publication US8362065B2, “Carbazole carboxamide compounds useful as kinase inhibitors” (Bristol-Myers Squibb Company, priority 2008, dated 2013).
# What was measured:
# human recombinant Btk = biological target: T1, human recombinant Btk (Homo sapiens, UniProt Q06187); experiment: Human Recombinant Btk Enzyme Assay; type: biochemical; conditions: human recombinant Btk 1 nM, ATP 20 μM, 60 min at room temperature; read-out: IC50 for Inhibition of Btk
# T1 construct: purchased Invitrogen Corporation
# Ramos RA1 B cells = experiment: Ramos FLIPR Assay; type: cell-based; conditions: goat anti-human IgM 2.5 μg/mL, peak intracellular calcium, read-out: IC50 for Inhibition of Ramos FLIPR assay
# [1] = tested on: anti-KLH IgG response in BALB/c mice; experiment: KLH Antigen Challenge and Antibody Measurement; type: in vivo, mouse; conditions: female BALB/c mice, serum 14 days post-immunization
# Protocol: KLH Antigen Challenge and Antibody Measurement
# Female BALB/c mice (6-8 weeks old) were immunized intraperitoneally (IP) with 250 μg keyhole limit hemocyanin (KLH) (Pierce, Rockford, Ill.) in phosphate-buffered saline (PBS). Mice in appropriate groups were dosed as indicated. Blood was collected 14 days post-immunization, serum was separated and analyzed for anti-KLH IgG titers by ELISA. Briefly, 96 well plates were coated with KLH in PBS, blocked, and serial dilutions of test serum samples were added.
# T1 sequence (Q06187 whole entry): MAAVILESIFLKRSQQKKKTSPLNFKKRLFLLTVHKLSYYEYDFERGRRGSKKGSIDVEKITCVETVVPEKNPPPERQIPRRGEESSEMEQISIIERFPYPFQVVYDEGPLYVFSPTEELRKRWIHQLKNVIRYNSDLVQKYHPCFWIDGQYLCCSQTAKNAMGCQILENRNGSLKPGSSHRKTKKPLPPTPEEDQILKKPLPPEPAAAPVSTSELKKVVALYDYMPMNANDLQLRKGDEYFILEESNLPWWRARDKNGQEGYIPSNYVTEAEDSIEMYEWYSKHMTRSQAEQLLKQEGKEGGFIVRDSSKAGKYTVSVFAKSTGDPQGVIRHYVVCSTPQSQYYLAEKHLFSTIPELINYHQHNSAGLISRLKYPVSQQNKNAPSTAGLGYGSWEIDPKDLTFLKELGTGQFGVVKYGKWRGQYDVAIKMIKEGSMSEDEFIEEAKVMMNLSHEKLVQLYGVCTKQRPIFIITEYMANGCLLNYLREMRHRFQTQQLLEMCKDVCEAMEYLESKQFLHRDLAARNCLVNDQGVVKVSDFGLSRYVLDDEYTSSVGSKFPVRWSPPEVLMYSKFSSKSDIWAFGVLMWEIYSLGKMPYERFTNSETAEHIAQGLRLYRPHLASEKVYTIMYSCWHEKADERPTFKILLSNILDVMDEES
SMILES,IC50 (human recombinant Btk) [nM],IC50 (Ramos RA1 B cells) [nM],other results
COC(CO)c1ccc2c(c1)[nH]c1c(C(N)=O)ccc(-c3cccc(N4Cc5ccc(C)cc5C4=O)c3C)c12 (racemic) [Example 75-3],1.1,16,–
CN1CCN(C(=O)c2ccc3c(c2)[nH]c2c(C(N)=O)ccc(-c4c(F)cc(NC(=O)c5ccc(F)cc5)cc4F)c23)CC1 [Example 5-48],–,1400,–
"Cc1ccc(NC(=O)Nc2cccc(-c3ccc(C(N)=O)c4[nH]c5cc(C(=O)N6CCN(C)CC6)ccc5c34)c2C)cc1C [Example 8-1, 4-(3-(3-(3,4-dimethylphenyl)ureido)-2-methylphenyl)-7-(4-methylpiperazine-1-carbonyl)-9H-carbazole-1-carboxamide]",–,5400,–
"Cc1c(Nc2ncnc3cc(Cl)ccc23)cccc1-c1ccc(C(N)=O)c2[nH]c3cc(C(=O)N4CCN(C)CC4)ccc3c12 [Example 11-6, 4-(3-(7-chloroquinazolin-4-ylamino)-2-methylphenyl)-7-(4-methylpiperazine-1-carbonyl)-9H-carbazole-1-carboxamide]",–,280,–
"CC(=O)NCc1ccc2c(c1)[nH]c1c(C(N)=O)ccc(-c3cccc(-n4cnc5ccc(F)cc5c4=O)c3C)c12 [Example 38-3, 7-(acetamidomethyl)-4-(3-(6-fluoro-4-oxoquinazolin-3(4H)-yl)-2-methylphenyl)-9H-carbazole-1-carboxamide]",1.4,23,–
"Cc1c(-c2ccc(C(N)=O)c3[nH]c4cc(N5CCCC5=O)ccc4c23)cccc1N1Cc2ccccc2C1=O [Example 62-1, 4-(2-methyl-3-(1-oxoisoindolin-2-yl)phenyl)-7-(2-oxopyrrolidin-1-yl)-9H-carbazole-1-carboxamide]",–,250,–
Cc1ccc2c(c1)CN(c1cccc(-c3ccc(C(N)=O)c4[nH]c5cc(N6CCCC6=O)ccc5c34)c1C)C2=O [Example 66-5],–,260,–
Cc1c(-c2ccc(C(N)=O)c3[nH]c4cc(N5CCOC5=O)ccc4c23)cccc1N1Cc2ccccc2C1=O [Example 66-10],–,270,–
Cc1c(-c2ccc(C(N)=O)c3[nH]c4cc(N5CCNC5=O)ccc4c23)cccc1N1Cc2cc(F)ccc2C1=O [Example 66-14],–,260,–
Cc1c(-c2ccc(C(N)=O)c3[nH]c4cc(NC(=O)C5CC5)ccc4c23)cccc1N1Cc2ccccc2C1=O [Example 66-39],–,260,–
Cc1ccc2c(c1)CN(c1cncc(-c3ccc(C(N)=O)c4[nH]c5cc(N6CCOC6=O)ccc5c34)c1C)C2=O [Example 66-40],–,270,–
Cc1c(-c2ccc(C(N)=O)c3[nH]c4cc(C(O)CO)ccc4c23)cccc1-n1cnc2ccc(F)cc2c1=O (stereo not drawn) [Example 70-13],0.7,11,–
Cc1c(-c2ccc(C(N)=O)c3[nH]c4cc(C(O)CO)ccc4c23)cccc1-n1cnc2ccc(Cl)cc2c1=O (stereo not drawn) [Example 70-14],0.9,14,–
Cc1c(/N=C2\OCc3ccncc32)cccc1-c1ccc(C(N)=O)c2[nH]c3c(c12)CCC(C(C)(C)O)C3 (stereo not drawn) [Example 76-7],–,240,–
Cc1c(-c2ccc(C(N)=O)c3[nH]c4cc(C(C)(C)O)ccc4c23)cccc1N1Cc2ccc(F)cc2C1=O [Example 76-15],2.4,48,inhibited the anti-KLH IgG response ([1]; 10 mg/kg twice daily): 29%; inhibited the anti-KLH IgG response ([1]; 30 mg/kg twice daily): 56%
Cc1c(-c2ccc(C(N)=O)c3[nH]c4cc(C(C)(C)O)ccc4c23)cccc1-n1cnc2cccc(F)c2c1=O [Example 76-26],–,18,–
"COc1ccc2c(c1)CN(c1cccc(-c3ccc(C(N)=O)c4[nH]c5cc(C(C)(C)O)ccc5c34)c1C)C2=O [Example 76-32, 7-(2-hydroxypropan-2-yl)-4-(3-(5-methoxy-1-oxoisoindolin-2-yl)-2-methylphenyl)-9H-carbazole-1-carboxamide]",3.2,38,–
Cc1ccc2ncn(-c3cccc(-c4ccc(C(N)=O)c5[nH]c6c(c45)CCC(C(C)(C)O)C6)c3C)c(=O)c2c1 (stereo not drawn) [Example 76-43],–,260,–
Cc1c(/N=C2\OCc3ccncc32)cccc1-c1ccc(C(N)=O)c2[nH]c3cc(C(C)(C)OCCO)ccc3c12 [Example 76-49],–,14,–
Cc1c(-c2ccc(C(N)=O)c3[nH]c4cc(C(C)(C)O)ccc4c23)cccc1-n1cnc2c(F)cccc2c1=O [Example 76-51],1.4,17,–
Cc1cn2ccn(-c3cccc(-c4ccc(C(N)=O)c5[nH]c6cc(NC(C)C)ccc6c45)c3C)c(=O)c2n1 [Example 80-2],–,16,–
"Cc1c(Nc2ncnc3c(F)cccc23)cccc1-c1ccc(C(N)=O)c2[nH]c3cc(C(C)(C)O)ccc3c12 [Example 81-1, 4-(3-(8-fluoroquinazolin-4-ylamino)-2-methylphenyl)-7-(2-hydroxypropan-2-yl)-9H-carbazole-1-carboxamide]",–,15,–
Cc1c(-c2ccc(C(N)=O)c3[nH]c4cc(C(C)(C)O)ccc4c23)cccc1N1CCc2cc(F)ccc2C1=O [Example 81-20],2.2,–,–
"COC1=CC(=O)N(c2cccc(-c3ccc(C(N)=O)c4[nH]c5cc(C(C)(C)O)ccc5c34)c2C)C1 [Example 82-1, 7-(2-hydroxypropan-2-yl)-4-(3-(4-methoxy-2-oxo-2,5-dihydro-1H-pyrrol-1-yl)-2-methylphenyl)-9H-carbazole-1-carboxamide]",1.9,17,–
"Cc1ccc2c(c1)C(=O)N(c1cccc(-c3ccc(C(N)=O)c4[nH]c5cc(C(COC(=O)C(C)N)OC(=O)C(C)N)ccc5c34)c1C)C2 (stereo not drawn) [Example 83-3, 1-(8-carbamoyl-5-(2-methyl-3-(6-methyl-1-oxoisoindolin-2-yl)phenyl)-9H-carbazol-2-yl)ethane-1,2-diylbis(2-aminopropanoate)]",1.4,–,–
"Cc1ccc2c(c1)C(=O)N(c1cccc(-c3ccc(C(N)=O)c4[nH]c5cc(C(O)COC(=O)C(C)N)ccc5c34)c1C)C2 (stereo not drawn) [Example 83-4, 2-(8-carbamoyl-5-(2-methyl-3-(6-methyl-1-oxoisoindolin-2-yl)phenyl)-9H-carbazol-2-yl)-2-hydroxyethyl 2-aminopropanoate]",1.1,–,–
